Laboratory results reported in ChEMBL document CHEMBL1201862, “PubChem BioAssay data set” (2004).
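Step 1: Grow cells in 96-well plates. Step 2: Expose to compound for 48 hours at 5 concentrations. Step 3: Interpolate endpoints linearly; if unreached, use highest concentration. Abbreviation: GI50, concentration required for 50% inhibition of growth.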 Activity calls are given as the source filed them. Rule as the data show it: active = GI50 up to about 1.1 µM and inactive = higher.

Key:
Assay in all cases: NCI anticancer screen, dose series, 48 h
[1] = tested on: HCC 2998
[2] = tested on: SK-MEL-28
[3] = tested on: M14
[4] = tested on: NCI-H460
[5] = tested on: SK-OV-3
[6] = tested on: LOX IMVI
[7] = tested on: NCI-H226
[8] = tested on: RPMI-8226
[9] = tested on: A498
[10] = tested on: ACHN
[11] = tested on: SK-MEL-5
[12] = tested on: HOP-62
[13] = tested on: Malme-3M
[14] = tested on: MDA-MB-435
[15] = tested on: HL-60
[16] = tested on: SF-268
[17] = tested on: OVCAR-5
[18] = tested on: OVCAR-3
[19] = tested on: EKVX
[20] = tested on: UACC-257

Measured: GI50

CC(=O)OC1CC2CC(=O)CC1N2C (stereo not given)
inactive: [1] > 100 µM | [2] > 100 µM | [3] > 100 µM | [4] > 100 µM | [5] > 100 µM | [6] > 100 µM | [7] > 100 µM | [8] 68.7 µM | [9] > 100 µM | [10] > 100 µM | [11] > 100 µM | [12] > 100 µM | [13] > 100 µM | [14] > 100 µM | [15] > 100 µM | [16] > 100 µM | [17] > 100 µM | [18] > 100 µM | [19] > 100 µM | [20] > 100 µM

C[C@H](CCC(=O)NCC(=O)O)[C@H]1CC[C@H]2[C@@H]3[C@H](O)C[C@@H]4C[C@H](O)CC[C@]4(C)[C@H]3CC[C@]12C
inactive: [1] > 100 µM | [2] > 100 µM | [3] > 100 µM | [4] > 100 µM | [5] > 100 µM | [6] > 100 µM | [7] > 100 µM | [8] > 100 µM | [9] > 100 µM | [10] > 100 µM | [11] > 100 µM | [12] > 100 µM | [13] 71.6 µM | [14] > 100 µM | [15] > 100 µM | [16] > 100 µM | [17] > 100 µM | [18] > 100 µM | [19] > 100 µM | [20] > 100 µM

CC/C(Cl)=N\OC(=O)Nc1ccc(OC)cc1
inactive: [1] 5.58 µM | [2] 6.71 µM | [3] 5.19 µM | [4] 20.2 µM | [5] 17.5 µM | [6] 2.03 µM | [7] 12.2 µM | [8] 1.9 µM | [9] 18.2 µM | [10] 1.92 µM | [11] 6.18 µM | [12] 16.5 µM | [13] 1.84 µM | [14] 8.04 µM | [15] 1.85 µM | [16] 14.3 µM | [17] 6.11 µM | [18] 5.68 µM | [19] 5.9 µM | [20] 15.7 µM

Cc1ccc(C(=O)Nc2ccc(CP(=O)(O)O)cc2CP(=O)(O)O)cc1NC(=O)Nc1cc(C(=O)Nc2ccc(CP(=O)(O)O)cc2CP(=O)(O)O)ccc1C
inactive: [1] > 100 µM | [2] > 100 µM | [3] > 100 µM | [4] > 100 µM | [5] > 100 µM | [6] > 100 µM | [7] > 100 µM | [8] > 100 µM | [9] > 100 µM | [10] > 100 µM | [11] > 100 µM | [12] > 100 µM | [13] > 100 µM | [14] > 100 µM | [15] > 100 µM | [16] > 100 µM | [17] > 100 µM | [18] > 100 µM | [19] > 100 µM | [20] > 100 µM
